Results published in patent publication US10485772B2, “Compositions for modulating cancer stem cells and uses therefor” (University of Canberra, priority 2014, dated 2019).

Columns and labels:
MDA-MB 231 cells = assay: FACS analysis of CD44high/CD24low CSC-like subpopulation in Basal/metastatic model; type: cell-based, human; details: bisindolylmaleimide-I 4 μM
Experimental: Cells from each well/flask were harvested by means of trypsin treatment followed by two washes with PBS. Washed cells then re-suspended in an antibody cocktail consisting anti-CD44-APC, anti-CD24-PE antibodies (details in Table 5) and Hoechst 33258 dye (final dilution of 1:1000) (Invitrogen, Carlsbad, Calif.) in 1% FCS-PBS solution. Cells re-suspended in antibody cocktail were incubated for 20 minutes at 4° C. Cells were next washed twice with PBS and re-suspended in 1% FCS-PBS solution (volume based on cell number) and kept on ice until analyzed by FACS. Forward scatter (FSC) and side scatter parameters were selected with FITC fluorochrome excited by 488 nm argonion laser, PE fluorochrome excited by 488 nm and Hoechst fluorochrome excited by 350 nm helium-cadmium UV laser.
Flow Cytometry data was produced using either BD FACS LSR Flow Cytometer (Becton Dickinson Biosciences) or BD FACS Aria™ II Flow Cytometer (Becton Dickinson Biosciences) and analyzed using the data acquisition software CellQuest Pro (Becton Dickinson Biosciences) and FlowJo (Tree Star Inc., Ashland, Oreg.) software at the MCRF facility, JCSMR, ANU, Canberra, Australia. Single colour controls were used to set compensation parameters. Isotype controls were used for all corresponding primary antibodies in each experiment.
The adherent human mammary adenocarcinoma MCF-7 and MDA-MB-231 cells were cultured in low glucose DMEM (Gibco) and both supplemented with 10% FCS, 2 mM L-glutamine and 0.1% PSN antibiotics. Cells were stimulated with 0.65 ng/ml of phorbol 12-myristate 13-acetate (PMA) (Sigma-Aldrich) or 20 ng/ml of TGF-β (R&D systems) for the times indicated. For Bisindolylmaleimide-I (Calbiochem) or PKC-θ peptide inhibitor (Calbiochem) studies, cells were pre-treated with 1 μM or 30 μM of inhibitor respectively for 1 h prior to stimulation in MCF-7 cells. In case of MDA-MB-231, cells were treated with 4 μM or 30 μM Bisindolylmaleimide-I or PKC-θ peptide inhibitor respectively.
To separate CSC from non-CSC (NCSC), florescence activated cell sorting (FACS) was performed on single-cell suspensions that were stained with anti-CD44-APC (559942, BD Biosciences) and anti-CD24-PE antibodies (555428, BD Biosciences) along with Hoechst 33258 to monitor cell viability. As used throughout this work, CSC are defined by minority CD44^high/CD24^low, whereas NCSC are defined by rest of the cell populations.

[1] = system: MCF-7 cells (mammospheres); assay: Mammosphere assay in MCF-IM model; type: cell-based, human; details: bisindolylmaleimide-I 1 μM for 1 hr prior to PMA for 6 days
Experimental: The following mammosphere culture media components were purchased from StemCell Technologies Inc., BC, Canada: Mammocult Basal medium (Human) (catalogue number-05621), Mammocult Proliferation Supplements (Human) (catalogue number-05622), heparin (catalogue number-07904) and hydrocortisone (catalogue number-[…]). Hydrocortisone powder was freshly dissolved into mammocult basal medium to get 10^−4M solution on the day of experiment. 50 mL of
Mammocult complete media was then prepared by addition of 45 mL Mammocult basal medium, 5 mL mammocult proliferation supplements, 100 μL of the 0.2% heparin stock, 500 μL of 10^−4M stock of hydrocortisone and 50 μL of the PNS. Mammocult complete media was either used on same day or stored for not more than 7 days at 4° C.
MCF-7 cells were grown in a 175 cm^2 cell culture flask and harvested using a cell scraper (Zellschaber, Switzerland) or FACS sorted as specified below. Importantly trypsin treatment was never used for harvesting cells as it interferes with the mammosphere assay. Harvested cells were then re-suspended in 1 mL mammocult complete media and centrifuged at 500×g for 3 minutes at 20° C. The cell pellet was then re-suspended in 1 mL mammocult complete media before counting the cells on the Vi-CELL counter. Cell dilutions were then prepared to stain 40,000 cells/2 mL and 2 mL of cells were seeded in the 6 well-ultra low adherent, flat bottom plates (Costar, Corning Inc, Corning, N.Y., USA). Cells were either stimulated or not treated according to the experimental protocol and incubated at 37° C., under 5% CO2 for 7 days in a Hepa-Filtered Infrared (IR) Incubator (Forma Scientific Inc., Materietta, Ohio). Mammospheres larger than 60 μm were counted per well on day 7 and pictures were taken with an Olympus microscope. All the mammosphere assays were performed in duplicate wells and the entire procedure was repeated at least twice.
Mammosphere culture media components were purchased from StemCell Technologies and mammosphere assays were performed as recommended by the manufacturer's guidelines. Briefly, 40,000 cells/2 ml cell dilutions were then prepared and 2 ml of cells were seeded in the 6 well-ultralow adherent, flat bottom plates (Costar). Mammospheres larger than 60 μm were counted per well on day 7 and pictures were taken.

[2] = listed as Broad spectrum PKC pathway inhibitor

Compound: CN(C)CCCn1cc(C2=C(c3c[nH]c4ccccc34)C(=O)NC2=O)c2ccccc21 [bisindolylmaleimide-I]
- CD44 high CD24 low-CSC-like subpopulation by FACS (MDA-MB 231 cells): inhibits CD44 high CD24 low-CSC-like subpopulation
- CD44 high CD24 low-CSC-like subpopulation by FACS (MDA-MB 231 cells; [2]): inhibition of EMT and CSC formation
- mammosphere formation [1]: reduce mammosphere formation
- mammosphere formation [1, 2]: inhibition of EMT and CSC formation
